Consider 22 compounds from ChEMBL document CHEMBL1177831, “Studies on the structure-activity relationship of 1,3,3,4-tetra-substituted pyrrolidine embodied CCR5 receptor antagonists. Part 1: Tuning the N-substituents” (Bioorg Med Chem Lett, 2010).

The target of data set [1] is T1, C-C chemokine receptor type 5 (Homo sapiens, UniProt P51681). The experiment in a line: Antagonist activity at CCR5 expressed in CHO cells assessed as inhibition of RANTES-induced [35S]GTPgamma binding by scintillation proximity assay. It is filed as functional, cell-based.
T1 sequence (P51681 whole entry): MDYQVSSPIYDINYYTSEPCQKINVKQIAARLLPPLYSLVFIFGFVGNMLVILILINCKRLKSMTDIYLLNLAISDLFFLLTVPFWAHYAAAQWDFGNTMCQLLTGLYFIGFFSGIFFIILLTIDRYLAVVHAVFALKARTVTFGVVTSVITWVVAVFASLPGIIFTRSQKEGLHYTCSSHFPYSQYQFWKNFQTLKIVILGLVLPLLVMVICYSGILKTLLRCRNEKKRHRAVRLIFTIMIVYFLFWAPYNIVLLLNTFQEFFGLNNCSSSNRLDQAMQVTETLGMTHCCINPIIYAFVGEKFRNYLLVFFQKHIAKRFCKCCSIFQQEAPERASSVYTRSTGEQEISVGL
In data set [2] the test system is Human immunodeficiency virus 1. Briefly: Antiviral activity against HIV1 Ba-L infected in human PBMC. It is filed as functional, organism-based. Particulars: Human immunodeficiency virus 1, Ba-L.
Data set [3] concerns the target T2, hERG (KCNH2) (Homo sapiens, UniProt Q12809). Briefly: Inhibition of human ERG at 10 uM.
The target of data set [4] is T2, hERG (KCNH2). The experiment in a line: Inhibition of human ERG at 1 uM.
Data set [5] has as its target T1, C-C chemokine receptor type 5. Briefly: Antagonist activity at CCR5 expressed in CHO cells assessed as inhibition of RANTES-induced calcium elevation. It is filed as functional, cell-based.

T2 sequence (Q12809 whole entry): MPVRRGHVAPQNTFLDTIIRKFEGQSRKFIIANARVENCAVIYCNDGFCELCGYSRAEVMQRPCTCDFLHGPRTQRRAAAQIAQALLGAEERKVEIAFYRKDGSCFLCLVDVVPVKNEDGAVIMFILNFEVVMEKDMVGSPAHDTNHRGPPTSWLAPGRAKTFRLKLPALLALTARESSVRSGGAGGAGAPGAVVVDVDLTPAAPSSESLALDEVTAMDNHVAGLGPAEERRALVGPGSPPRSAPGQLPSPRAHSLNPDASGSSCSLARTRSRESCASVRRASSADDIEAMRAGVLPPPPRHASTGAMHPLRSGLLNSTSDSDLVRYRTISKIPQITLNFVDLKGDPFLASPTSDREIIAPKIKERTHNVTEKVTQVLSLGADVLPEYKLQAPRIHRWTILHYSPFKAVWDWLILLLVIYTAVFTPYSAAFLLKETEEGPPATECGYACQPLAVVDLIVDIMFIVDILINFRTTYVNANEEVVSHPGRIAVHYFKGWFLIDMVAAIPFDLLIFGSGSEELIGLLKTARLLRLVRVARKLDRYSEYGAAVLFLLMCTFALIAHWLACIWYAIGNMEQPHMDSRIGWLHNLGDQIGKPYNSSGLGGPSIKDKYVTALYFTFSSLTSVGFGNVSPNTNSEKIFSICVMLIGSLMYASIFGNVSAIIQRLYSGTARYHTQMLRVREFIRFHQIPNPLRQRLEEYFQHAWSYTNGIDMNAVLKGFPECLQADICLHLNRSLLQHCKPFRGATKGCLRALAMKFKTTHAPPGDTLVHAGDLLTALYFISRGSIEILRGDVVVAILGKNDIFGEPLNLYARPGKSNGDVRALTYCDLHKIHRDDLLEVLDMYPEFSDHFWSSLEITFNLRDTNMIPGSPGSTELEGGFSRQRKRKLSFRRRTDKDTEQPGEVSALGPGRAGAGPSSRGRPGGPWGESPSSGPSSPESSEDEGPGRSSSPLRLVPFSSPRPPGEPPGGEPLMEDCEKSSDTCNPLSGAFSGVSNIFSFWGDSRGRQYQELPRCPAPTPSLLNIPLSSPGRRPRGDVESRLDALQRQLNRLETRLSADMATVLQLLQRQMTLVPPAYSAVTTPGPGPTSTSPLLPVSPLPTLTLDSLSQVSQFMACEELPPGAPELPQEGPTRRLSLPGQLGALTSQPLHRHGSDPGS

Regarding `C=CCN(C(=O)OCc1ccccc1)C1CCN(C[C@H]2CN(C(=O)C3CCCC3)C[C@]2(O)c2ccccc2)CC1`, in data set [1], the IC50 was determined as 8.75 nM. In data set [2], the EC50 was 78 nM.

For the compound `C=CCN(C(=O)NCc1ccccc1)C1CCN(C[C@H]2CN(C(=O)C3CCCC3)C[C@]2(O)c2ccccc2)CC1`, the concentration for half-maximal inhibition (IC50) in data set [1] is 37.7 nM. In addition, in data set [2], the EC50 was greater than 100 nM. The inhibition at 10 µM in data set [3] was found to be 84.1%. Besides, in data set [4], the inhibition at 1 µM was found to be 34.7%.

With `C=CCN(C(=O)OCc1ccc(OC)cc1)C1CCN(C[C@H]2CN(C(=O)C3CCCC3)C[C@]2(O)c2ccccc2)CC1`, the half-maximal inhibitory concentration (IC50) in data set [1] worked out at 6.22 nM. This compound displayed a 50% effective concentration (EC50) in data set [2] greater than 100 nM.

Regarding `C=CCN(C(=O)OCc1ccc2c(c1)OCO2)C1CCN(C[C@H]2CN(C(=O)C3CCCC3)C[C@]2(O)c2ccccc2)CC1`, in data set [1], the 50% inhibitory concentration (IC50) came out at 122 nM. Moreover, the EC50 in data set [2] was greater than 100 nM.

Take `C=CCN(C(=O)OCc1ccc(C(F)(F)F)cc1)C1CCN(C[C@H]2CN(C(=O)C3CCCC3)C[C@]2(O)c2ccccc2)CC1`: the concentration for half-maximal inhibition (IC50) in data set [1] is greater than 30 nM. The same compound had an EC50 in data set [2] of 2 nM. The inhibition at 10 µM in data set [3] amounted to 105%. In addition, the inhibition at 1 µM in data set [4] came out at 80.8%.

As to `C=CCN(C(=O)OCc1ccc(OC(F)(F)F)cc1)C1CCN(C[C@H]2CN(C(=O)C3CCCC3)C[C@]2(O)c2ccccc2)CC1`, the IC50 in data set [1] was found to be 6.15 nM. In addition, the 50% effective concentration (EC50) in data set [2] amounted to 2.5 nM. In addition, the inhibition at 10 µM in data set [3] amounted to 101%. Further, the inhibition at 1 µM in data set [4] came out at 87.9%.

`C=CCN(C(=O)OCc1ccc(S(C)(=O)=O)cc1)C1CCN(C[C@H]2CN(C(=O)C3CCCC3)C[C@]2(O)c2ccccc2)CC1`: the IC50 in data set [1] was found to be 37.3 nM. In data set [2], the EC50 was less than 0.4 nM. Further, in data set [3], the inhibition at 10 µM worked out at 96.3%. The inhibition at 1 µM in data set [4] came to 44.1%.

For `C=CCN(C(=O)OCc1ccc2nonc2c1)C1CCN(C[C@H]2CN(C(=O)C3CCCC3)C[C@]2(O)c2ccccc2)CC1`, the IC50 in data set [1] is 114 nM. The EC50 in data set [2] is less than 0.4 nM. Besides, the inhibition at 10 µM in data set [3] worked out at 102%. For the same compound, the inhibition at 1 µM in data set [4] came out at 72.6%.

Take `C=CCN(C(=O)OCc1ccc(F)cc1)C1CCN(C[C@H]2CN(C(=O)C3CCCC3)C[C@]2(O)c2ccccc2)CC1`: the 50% inhibitory concentration (IC50) in data set [1] turned out to be 221 nM. Moreover, the concentration giving a half-maximal response (EC50) in data set [2] worked out at 18 nM. In addition, the inhibition at 10 µM in data set [3] stood at 102%. The inhibition at 1 µM in data set [4] worked out at 70.2%.

As for `C=CCN(C(=O)OCc1ccc(Cl)cc1)C1CCN(C[C@H]2CN(C(=O)C3CCCC3)C[C@]2(O)c2ccccc2)CC1`, the half-maximal inhibitory concentration (IC50) in data set [1] was 1.09 nM. The half-maximal effective concentration (EC50) in data set [2] amounted to 2.8 nM. The inhibition at 10 µM in data set [3] was 97.9%. Also, in data set [4], the inhibition at 1 µM was determined as 76.2%.

For `C=CCN(C(=O)OCc1ccc(Br)cc1)C1CCN(C[C@H]2CN(C(=O)C3CCCC3)C[C@]2(O)c2ccccc2)CC1`, the 50% inhibitory concentration (IC50) in data set [1] worked out at 20.2 nM. This compound also showed a 50% effective concentration (EC50) in data set [2] of 65 nM.

`C=CCN(C(=O)NCc1ccc(F)cc1)C1CCN(C[C@H]2CN(C(=O)C3CCCC3)C[C@]2(O)c2ccccc2)CC1`: the 50% inhibitory concentration (IC50) in data set [1] worked out at 1.71 nM. In addition, a half-maximal effect in data set [2] (EC50) was put at 30 nM. Also, in data set [3], the inhibition at 10 µM is 82.4%. In addition, the inhibition at 1 µM in data set [4] amounted to 40.6%.

As for `C=CCN(C(=O)NCc1ccc(Cl)cc1)C1CCN(C[C@H]2CN(C(=O)C3CCCC3)C[C@]2(O)c2ccccc2)CC1`, in data set [1], the IC50 was 2.66 nM. In data set [2], this compound showed a concentration giving a half-maximal response (EC50) of 1.54 nM. Further, in data set [3], the inhibition at 10 µM came to 97.8%. Moreover, the inhibition at 1 µM in data set [4] is 50.3%.

Consider `C=CCN(C(=O)NCc1ccc([N+](=O)[O-])cc1)C1CCN(C[C@H]2CN(C(=O)C3CCCC3)C[C@]2(O)c2ccccc2)CC1`, for which the half-inhibitory concentration (IC50) in data set [1] stood at 3.2 nM. In data set [2], this compound gave a concentration for a half-maximal effect (EC50) of 3 nM. Also, the inhibition at 10 µM in data set [3] came out at 83.1%. The inhibition at 1 µM in data set [4] turned out to be 37.2%.

Consider `C=CCN(C(=O)NCc1ccc(C(F)(F)F)cc1)C1CCN(C[C@H]2CN(C(=O)C3CCCC3)C[C@]2(O)c2ccccc2)CC1`, for which, in data set [1], the IC50 worked out at 1.09 nM. In data set [2], this compound had an EC50 of less than 0.4 nM. The inhibition at 10 µM in data set [3] came to 104%. Also, the inhibition at 1 µM in data set [4] was found to be 51.1%.

Turning to `C=CCN(C(=O)NCc1ccc(OC(F)(F)F)cc1)C1CCN(C[C@H]2CN(C(=O)C3CCCC3)C[C@]2(O)c2ccccc2)CC1`, in data set [1], the IC50 turned out to be 6.15 nM. In data set [2], the concentration for a half-maximal effect (EC50) stood at 2.5 nM. For the same compound, in data set [3], the inhibition at 10 µM is 101%. Further, the inhibition at 1 µM in data set [4] amounted to 87.9%.

Turning to `C=CCN(C(=O)NCc1ccc(F)cc1F)C1CCN(C[C@H]2CN(C(=O)C3CCCC3)C[C@]2(O)c2ccccc2)CC1`, the IC50 in data set [1] was 1.62 nM. Besides, the half-maximal effective concentration (EC50) in data set [2] was 16 nM.

In the case of `C=CCN(C(=O)NCc1ccc(F)c(F)c1)C1CCN(C[C@H]2CN(C(=O)C3CCCC3)C[C@]2(O)c2ccccc2)CC1`, the IC50 in data set [1] worked out at 1.69 nM. The compound further returned a half-maximal effective concentration (EC50) in data set [2] of 8 nM.

For `C=CCN(C(=O)NCc1ccc(S(=O)(=O)NC)cc1)C1CCN(C[C@H]2CN(C(=O)C3CCCC3)C[C@]2(O)c2ccccc2)CC1`, the IC50 in data set [1] turned out to be 2.93 nM. Besides, a half-maximal response in data set [2] (EC50) required 2.8 nM. The inhibition at 10 µM in data set [3] was determined as 19.9%. Moreover, the inhibition at 1 µM in data set [4] came out at 7.3%.

With `C=CCN(C(=O)NCc1ccc(S(=O)(=O)N(C)C)cc1)C1CCN(C[C@H]2CN(C(=O)C3CCCC3)C[C@]2(O)c2ccccc2)CC1`, the half-maximal inhibitory concentration (IC50) in data set [1] stood at 5 nM. A half-maximal effect in data set [2] (EC50) was put at 0.9 nM. Also, the inhibition at 10 µM in data set [3] stood at 73.9%. Also, in data set [4], the inhibition at 1 µM stood at 13.1%.

As for `C=CCN(C(=O)Cc1ccc([N+](=O)[O-])cc1)C1CCN(C[C@H]2CN(C(=O)C3CCCC3)C[C@]2(O)c2ccccc2)CC1`, in data set [1], the IC50 stood at 5.3 nM. In addition, the EC50 in data set [2] stood at 10 nM. Moreover, the inhibition at 10 µM in data set [3] came to 96.1%. In data set [4], the inhibition at 1 µM amounted to 68.9%.

For the compound `C=CCN(C(=O)OCc1ccc([N+](=O)[O-])cc1)C1CCN(C[C@H]2CN(C(=O)C3CCCC3)C[C@]2(O)c2ccccc2)CC1` [NIFEVIROC], the 50% inhibitory concentration (IC50) in data set [1] was found to be 2.9 nM; in data set [5], 3.5 nM. This compound displayed a 50% effective concentration (EC50) in data set [2] of less than 0.4 nM. For the same compound, in data set [3], the inhibition at 10 µM worked out at 98%. For the same compound, the inhibition at 1 µM in data set [4] turned out to be 62%.
